Assay results published in patent US20060142323A1, “Dual binding site acetylcholinesterase inhibitors for the treatment of alzheimer's disease” (priority 2002, published 2006).

Columns and labels:
[1] = target: T1, AChE from bovine erythrocytes (Bos taurus, UniProt P23795); assay: AChE inhibition (from bovine erythrocytes), Ellman method at 25° C., Fluostar reader; assay type: biochemical; details: 0.5 mM acetylthiocholine iodide, pH 8, 10 min preincubation
T1 construct: 0.02 units AChE (Sigma Chemical Co. from bovine erythrocytes); purchased Sigma Chemical Co; host or cells: bovine erythrocytes
T1 sequence (P23795 31-614 isoform P23795-2 limits assumed): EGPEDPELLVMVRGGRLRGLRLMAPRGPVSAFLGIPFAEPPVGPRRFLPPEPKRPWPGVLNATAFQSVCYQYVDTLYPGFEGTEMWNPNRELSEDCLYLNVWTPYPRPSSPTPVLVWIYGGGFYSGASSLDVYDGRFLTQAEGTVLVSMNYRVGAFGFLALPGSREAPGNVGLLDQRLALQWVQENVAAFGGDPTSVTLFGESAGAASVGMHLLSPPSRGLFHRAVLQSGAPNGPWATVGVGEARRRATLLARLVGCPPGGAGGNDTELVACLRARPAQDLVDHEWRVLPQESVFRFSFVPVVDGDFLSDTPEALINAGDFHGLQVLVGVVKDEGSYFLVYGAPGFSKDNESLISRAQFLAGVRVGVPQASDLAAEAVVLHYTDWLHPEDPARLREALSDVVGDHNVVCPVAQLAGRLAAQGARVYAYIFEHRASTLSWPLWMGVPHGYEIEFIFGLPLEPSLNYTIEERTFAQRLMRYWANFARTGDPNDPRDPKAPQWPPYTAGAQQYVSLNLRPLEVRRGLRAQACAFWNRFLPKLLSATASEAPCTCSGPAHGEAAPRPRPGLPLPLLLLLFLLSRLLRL
Protocol: AChE Inhibition (from Bovine Erythocytes)
AChE inhibitory activity was evaluated at 25° C. by the colorimetric method reported by Ellman (Ellman, G. L.; Courtney, K. D.; Andres, B.; Featherstone, R. M. Biochem. Pharmacol. 1961, 7, 88-95). The assay solution consisted on 0.02 unit/ml AChE from bovine erythrocytes, 0.1 M sodium phosphate buffer pH 8, 0.3 mM 5,5′-dithiobis (2-nitrobenzoic […]), and 0.5 mM acetylthiocholine iodide as the substrate of the enzymatic reaction. Enzyme activity was determined by measuring the absorbance at 405 nm during 10 minutes with a Fluostar optima plate reader (BMG). The tested compounds were preincubated with the enzyme for 10 minutes at 30° C.

[2] = target: T1, AChE from bovine erythrocytes; assay: Acetylcholinesterase (AChE) inhibition (from bovine erythrocytes), Ellman method at 30° C., Digiscan 340T; assay type: biochemical; details: bovine erythrocytes AChE, 30° C., 5 min preincubation; read-out: IC50 AchE
Protocol: Acetylcholinesterase (AChE) Inhibition (from Bovine Erythrocytes)
AChE inhibitory activity was evaluated at 30° C. by the colorimetric method reported by Ellman [Ellman, G. L.; Courtney, K. D.; Andres, B.; Featherstone, R. M. Biochem. Pharmacol. 1961, 7, 88-95]. The assay solution consisted of 0.1 M phosphate buffer pH 8, 0.3 mM 5,5′-dithiobis (2-nitrobenzoic acid) (DTNB, Ellman's reagent), 0.02 units AChE (Sigma Chemical Co. from bovine erythrocytes), and 0.5 mM acetylthiocholine iodide as the substrate of the enzymatic reaction. The compounds tested were added to the assay solution and preincubated with the enzyme for 5 min at 30° C. After that period, the substrate was added. The absorbance changes at 405 nm were recorded for 5 min with a microplate reader Digiscan 340T, the reaction rates were compared, and the percent inhibition due to the presence of test compounds was calculated. The reaction rate was calculated with, at least, triplicate measurements, and the percent inhibition due to the presence of test compound was calculated relative to the compound-free control.

BuChE from human serum = target: T2, BuChE from human serum (Homo sapiens, UniProt P06276); assay: Butyrylcholinesterase (BuChE) inhibition (from human serum); assay type: biochemical; details: human serum BuChE, 30° C., 10 min preincubation; read-out: IC50 BuChE
T2 construct: The assay solution consisted of 0.01 units BuChE from human serum; from tissue; host or cells: human serum
T2 sequence (P06276 29-602): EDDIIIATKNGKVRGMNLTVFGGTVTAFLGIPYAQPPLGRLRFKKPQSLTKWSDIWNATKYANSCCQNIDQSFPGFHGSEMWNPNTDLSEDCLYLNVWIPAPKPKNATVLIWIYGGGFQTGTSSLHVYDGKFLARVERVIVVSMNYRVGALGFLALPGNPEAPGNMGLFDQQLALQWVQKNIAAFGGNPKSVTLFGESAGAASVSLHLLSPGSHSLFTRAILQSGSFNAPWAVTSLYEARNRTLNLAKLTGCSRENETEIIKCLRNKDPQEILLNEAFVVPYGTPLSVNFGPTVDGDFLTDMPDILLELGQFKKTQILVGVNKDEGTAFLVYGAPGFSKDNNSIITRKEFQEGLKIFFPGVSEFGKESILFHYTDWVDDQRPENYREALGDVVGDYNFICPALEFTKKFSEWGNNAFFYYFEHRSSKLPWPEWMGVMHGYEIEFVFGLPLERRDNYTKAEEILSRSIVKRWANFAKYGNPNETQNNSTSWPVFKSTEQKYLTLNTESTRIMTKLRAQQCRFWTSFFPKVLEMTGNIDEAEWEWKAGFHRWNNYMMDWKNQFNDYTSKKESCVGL
Protocol: Butyrylcholinetersae (BuChE) Inhibition (from Human Serum)
BuChE inhibitory activity was evaluated at 30° C. by the colorimetric method reported by Ellman (Ellman, G. L.; Courtney, K. D.; Andres, B.; Featherstone, R. M. Biochem. Pharmacol. 1961, 7, 88-95]. The assay solution consisted of 0.01 units BuChE from human serum, 0.1 M sodium phosphate buffer pH 8, 0.3 mM 5,5′-dithiobis (2-nitrobenzoic acid) (DTNB, Ellman's reagent), and 0.5 mM butylthiocholine iodide as the substrate of the enzymatic reaction. Enzyme activity was determined by measuring the absorbance at 405 nm during 5 minutes with a microplate reader Digiscan 340T. The tested compounds were preincubated with the enzyme for 10 minutes at 30° C. The reaction rate was calculated with, at least, triplicate measurements.

AChE peripheral site = AChE peripheral site (Homo sapiens, UniProt P22303); assay: Propidium competition (fluorescence); assay type: binding; details: 20 μM propidium iodide, AChE incubated at least 6 hours with compound
Sequence of AChE peripheral site (P22303 32-614): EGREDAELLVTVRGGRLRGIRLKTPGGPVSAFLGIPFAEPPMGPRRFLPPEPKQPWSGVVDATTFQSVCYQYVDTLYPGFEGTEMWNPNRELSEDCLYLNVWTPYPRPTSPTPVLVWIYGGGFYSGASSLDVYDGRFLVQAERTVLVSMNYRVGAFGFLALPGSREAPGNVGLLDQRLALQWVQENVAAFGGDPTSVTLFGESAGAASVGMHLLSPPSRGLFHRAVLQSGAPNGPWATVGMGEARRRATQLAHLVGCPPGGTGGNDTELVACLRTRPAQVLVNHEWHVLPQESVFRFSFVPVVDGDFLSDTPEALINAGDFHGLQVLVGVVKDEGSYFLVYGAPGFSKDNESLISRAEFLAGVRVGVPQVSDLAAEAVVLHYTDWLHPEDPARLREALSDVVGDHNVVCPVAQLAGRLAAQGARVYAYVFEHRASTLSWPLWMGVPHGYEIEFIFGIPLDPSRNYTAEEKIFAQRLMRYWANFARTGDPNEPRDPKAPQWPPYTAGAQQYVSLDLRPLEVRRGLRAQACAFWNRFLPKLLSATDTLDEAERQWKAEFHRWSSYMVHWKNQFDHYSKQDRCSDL
Protocol: Fluorescence was measured in a Fluostar optima plate reader (BMG). Measurements were carried out in 100 μl solution volume, in 96-well plates. The buffer used was 1 mM Tris/HCl, pH 8.0. […] AChE was incubated, at least 6 hours, with the molecules at different concentrations. 20 μM propidium iodide was added 10 min before fluorescence measurement.

[3] = system: human neuroblastoma cell line SH—SY5Y; assay: Toxicity measurement (LDH) in SH-SY5Y cells; assay type: cell-based; details: 24 hours exposure
Protocol: The cytotoxicity effect of the molecules was tested in the human neuroblastoma cell line SH—SY5Y. These cells were cultured in 96-well plates in minimum essential medium, Han's F12 medium, supplemented with 10% fetal bovine serum, 1% glutamine and 1% penicillin/streptomycin, and grown in. a 5% CO2 humidified incubator at 37° C.
The cells were plated at 10^4 cells for each well, at least, 48 hours before the toxicity measure. Cells were exposed for 24 hours to the compounds at different concentrations (from 10^−5 to 10^−9), quantitative assessment of cell death was made by measurement of the intracellular enzyme lactate dehydrogenase (LDH) (citotoxicity detection kit, Roche). The cuantity of LDH was evaluated in a microplate reader Anthos 2010, at 492 and 620 nm. Controls were taken as 100% viability.

[4] = system: SH—SY5Y cells exposed to β-amyloid fragment 25-35; assay: Effects on β-amyloid toxicity (fragment 25-35, LDH viability); assay type: cell-based, human; details: 1 hour pretreatment, Aβ 25-35 at 200 μM, 24 hours
Protocol: Effects on β-Amiloid Toxicity
We have tested if some of these molecules interfere with amyloid peptide toxicity. Cells SH—SY5Y were cultured in 96-well plates as toxicity experiments. Cells were pretreated for 1 hour with the compounds at different concentrations (from 10^−5 to 10^−9), immediately neuronal death is induced adding synthetic peptide β-amyloid, fragment 25-35 (A25-35) at 200 μM. 24 hours later cell viability was assessed with the LDH assay; results are reported relative to untreated wells.

[5] = system: calcium channels in SH—SY5Y cells; assay: Effects on calcium channels (K+ stimulated calcium entry, Fluo-4); assay type: cell-based, human; details: 60 mM K+, 10 min preincubation
Protocol: Effects on Calcium Channels
We have studied if these compounds are able to block calcium channels. Calcium entry in SH—SY5Y cells was stimulated with 60 mM K^+ in 96-well plates. Cells were plated at 5·10^4 for each well, at least, 48 hours before the experiment. For measurement of intracellular calcium, SH—SY5Y were washed with Krebs/HEPES buffer, pH 7.4. and cells were loaded with the calcium indicator dye Fluo-4 (Molecular Probes) for 40 min at 37° C. followed by 15 min post incubation at room temperature. Intracellular calcium was measured fluorometrically in a Fluostar optima plate reader (BMG), with excitation wavelengths set at 485 nm and emission at 520 nm. The tested compounds were preincubated with the cells for 10 minutes before the depolarization with K^+.

AChE from N2A cells = target: T3, AChE from N2A cells (Mus musculus, UniProt P21836); assay: Neuronal AChE activity, enzyme preparation from N2A cells; assay type: biochemical; details: pH 8, 0.5 mM acetylthiocholine iodide, read-out: IC50 AChE N2A (rat neuroblastoma)
T3 construct: The assay solution consisted of AChE from neuronal cells; endogenous in cells; host or cells: N2A neuroblastoma cells
T3 sequence (P21836 32-614): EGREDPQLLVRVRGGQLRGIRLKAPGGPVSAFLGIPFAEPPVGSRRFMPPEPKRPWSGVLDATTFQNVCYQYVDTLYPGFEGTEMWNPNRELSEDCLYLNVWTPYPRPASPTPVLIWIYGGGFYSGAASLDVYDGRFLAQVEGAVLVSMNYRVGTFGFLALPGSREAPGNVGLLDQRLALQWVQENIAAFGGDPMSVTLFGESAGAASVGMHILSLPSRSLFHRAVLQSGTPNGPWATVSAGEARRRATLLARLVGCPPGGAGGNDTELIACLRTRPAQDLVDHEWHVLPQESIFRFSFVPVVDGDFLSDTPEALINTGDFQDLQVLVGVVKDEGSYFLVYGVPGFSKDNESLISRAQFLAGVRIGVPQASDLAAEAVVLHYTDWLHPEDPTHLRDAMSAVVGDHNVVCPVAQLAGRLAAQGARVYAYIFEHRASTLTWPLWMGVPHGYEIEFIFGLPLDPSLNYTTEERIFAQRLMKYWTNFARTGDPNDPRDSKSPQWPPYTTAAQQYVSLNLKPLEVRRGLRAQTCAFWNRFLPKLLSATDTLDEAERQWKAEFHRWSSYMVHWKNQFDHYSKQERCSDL
Protocol: (§1) Acetylcholinesterase (AChE) enzyme preparations were obtained from SH—SY5Y, SK—N—SH and N2A cells.
(§2) CELL CULTURE: The human neuroblastoma cell line SH—SY5Y was cultured in minimum essential medium, Han's F12 medium, supplemented with 10% fetal bovine serum and 1% penicillin/streptomycin, and grown in a 5% CO2 humidified incubator at 37° C. […] The rat neuroblastoma cell line N2A was cultured in DULBECCO'S MOD EAGLE medium, supplemented with 10% fetal bovine serum and 1% penicillin/streptomycin, and grown in a 5% CO2 humidified incubator at 37° C. The cells were plated at 250 10^3 cells for each reaction, at least, 48 hours before the AChE activity measure. Cells were washed and harvested in 0.1 M sodium phosphate buffer pH 8, at 4° C.
(§3) The assay solution consisted of AChE from neuronal cells, 0.1 M phosphate buffer pH 8, 0.3 mM 5,5′-dithiobis (2-nitrobenzoic acid) (DTNB, Ellman-s reagent), and 0.5 mM acetylthiocholine iodide as the substrate of the enzymatic reaction. […] The reaction rate was calculated with, at least, triplicate measurements, and the percent inhibition due to the presence of test compound was calculated relative to the compound-free control.

[6] = target: T4, AChE from human erythrocytes (Homo sapiens, UniProt P22303); assay: AChE inhibition (from human erythrocytes), Ellman method; assay type: biochemical; details: 10 min preincubation at 30° C., 400 μM acetylthiocholine iodide, pH 8
T4 construct: 0.02 unit/ml AChE (Sigma Chemical Co. from human erythrocytes); purchased Sigma Chemical Co; host or cells: human erythrocytes
T4 sequence (P22303 32-617 isoform P22303-2 limits assumed): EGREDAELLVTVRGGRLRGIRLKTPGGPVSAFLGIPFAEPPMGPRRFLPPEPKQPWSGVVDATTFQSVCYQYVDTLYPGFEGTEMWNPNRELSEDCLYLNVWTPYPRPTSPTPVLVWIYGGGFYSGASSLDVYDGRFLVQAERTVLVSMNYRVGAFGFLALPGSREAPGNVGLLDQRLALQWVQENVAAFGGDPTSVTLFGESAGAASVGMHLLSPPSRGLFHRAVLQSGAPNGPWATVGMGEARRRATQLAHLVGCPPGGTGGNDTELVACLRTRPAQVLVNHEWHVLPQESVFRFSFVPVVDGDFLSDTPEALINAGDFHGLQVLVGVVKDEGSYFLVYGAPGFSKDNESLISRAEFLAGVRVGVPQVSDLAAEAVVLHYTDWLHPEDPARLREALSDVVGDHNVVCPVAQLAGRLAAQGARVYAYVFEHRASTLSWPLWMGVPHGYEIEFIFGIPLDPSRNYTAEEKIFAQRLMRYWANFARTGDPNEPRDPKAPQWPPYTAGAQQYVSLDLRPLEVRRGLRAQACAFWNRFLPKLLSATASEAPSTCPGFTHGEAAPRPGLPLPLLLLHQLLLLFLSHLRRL
Protocol: AChE Inhibition (from Human Erythrocytes)
The method of Ellman et al. (Ellman, G. L.; Courtney, K. D.; Andres, B.; Featherstone, R. M. Biochem. Pharmacol. 1961, 7, 88-95) was followed. The assay solution consisted of 0.1 M phosphate buffer pH 8, 200 μM 5,5′-dithiobis(2-nitrobenzoic acid) (DTNB, Ellan's reagent), 0.02 unit/ml AChE (Sigma Chemical Co. from human erythrocytes), and 400 μM acetylthiocholine iodide as the substrate of the enzymatic reaction. The compounds tested were added to the assay solution and pre incubated with the enzyme for 10 min at 30° C. After that period, the substrate was added. The absorbance changes at 412 nm were recorded for 5 min with a Perkin-Elmer 550 SE UV/VIS spectrometer, the reaction rates were compared, and the percent inhibition due to the presence of test compounds was calculated.

AChE from SK—N—SH cells = target: T5, AChE from SK—N—SH cells (Homo sapiens, UniProt P22303); assay: Neuronal AChE activity, enzyme preparation from SK-N-SH cells; assay type: biochemical
T5 construct: The assay solution consisted of AChE from neuronal cells; endogenous in cells; host or cells: SK-N-SH human neuroblastoma cells
T5 sequence (P22303 32-614): as the sequence (P22303 32-614) above
Protocol: as §1, §2, §3

β-amyloid-AChE complex = target: T6, β-amyloid-AChE complex (Homo sapiens, UniProt P22303); assay: Inhibition of β-amyloid aggregation (AChE-Aβ complex, Congo Red binding); assay type: biochemical; details: compound at its AChE IC50, Aβ1-40 0.1 mM, Aβ-AChE 200:1, 48 hours
T6 construct: purchased Sigma-Aldrich
T6 sequence (P22303 32-614, one chain of several): as the sequence (P22303 32-614) above
Protocol: Inhibition of β-Amyloid Aggregation:
Stock solutions of Aβ1-40 at 3.5 mM were prepared in DMSO. The amount of peptide used in the assays was 0.1 mM. Human recombinant AChE (Sigma-Aldrich) was used at a molar ratio Aβ-AChE 200:1. For the aggregation studies the peptide was mixed with the appropriate amount of AChE in PBS pH 7.4 and stirred for 48 hours in -a microtiter plate at room temperature. The fibrils obtained were characterized by Congo Red (CR) binding.
For the inhibition of β-amyloid aggregation, the compounds tested were used at the IC50 defined in the previous paragraph of the biological evaluation. Propidium iodide 50 μM for comparison.

AChE from SH—SY5Y cells = target: T7, AChE from SH—SY5Y cells (Homo sapiens, UniProt P22303); assay: Neuronal AChE activity, enzyme preparation from SH-SY5Y cells; assay type: biochemical; details: pH 8, 0.5 mM acetylthiocholine iodide, read-out: IC50 AChE SH-SY5Y (human neuroblastoma)
T7 construct: The assay solution consisted of AChE from neuronal cells; endogenous in cells; host or cells: SH-SY5Y human neuroblastoma cells
T7 sequence (P22303 32-614): as above
Protocol: as §1, §2, §3

CCCn1s/c(=N\CCCCCCCNc2c3c(nc4ccccc24)CCCC3)n(CC)c1=O [Compound 16, 4-Ethyl-2-propyl-5-[7-(1,2,3,4-tetrahydro-acridin-9-ylamino)-heptyl-imino]-[1,2,4]thiadiazolidin-3-one]
IC50 [1]: 203 nM | IC50 [2]: 450 nM | IC50 (BuChE from human serum): 20 nM | Propidium competition (AChE peripheral site): >100 µM | Toxicity [3]: 50 µM

O=C1c2ccccc2C(=O)N1CCCCCCCNc1c2ccccc2nc2ccccc12 [Compound 7, 2-[7-(Acridin-9-ylamino)-heptyl]-isoindole-1,3-dione]
IC50 [2]: 1500 nM | inhibition of Aβ(25-35) toxicity [4]: 1 µM | IC50 (BuChE from human serum): 700 nM | Propidium competition (AChE peripheral site): 100 µM | Calcium channel blockade [5]: 10 µM | Toxicity [3]: >100 µM

COc1cc2c(cc1OC)C(=O)C(CNCCCCCCCNc1c3c(nc4ccccc14)CCCC3)C2 (stereo not shown) [Compound 1, 5,6-Dimethoxy-2-{[7-(1,2,3,4-tetrahydro-acridin-9-ylamino)-heptylamino]-methyl}-indan-1-one]
IC50 (AChE from N2A cells): 209 nM | IC50 [6]: 25 nM | IC50 (AChE from SK—N—SH cells): 109 nM | reduction of the β-amyloid-AChE complex aggregation (β-amyloid-AChE complex): 18.7% | IC50 (AChE from SH—SY5Y cells): 4.35 µM
